pIC50: −log10 of the molar value.

In assay [1] the test system is reserpine-induced mice migraine. Briefly: Reserpine-induced mice migraine. The class given is in vivo, ICR mice. Conditions: for Blood coagulation time: reserpine 0.2 mg/kg sc mice, 1 h after final administration; for brain tissue 5-HT / Times of tail suspension (struggling times within 2 min): reserpine mice; for Times of tail suspension (struggling times within 2 min): 9th day; for blood coagulation time, in words / level of 5-HT in the brain tissue, in words / times of the tail suspension activity, in words: compared with the model group. The method, then: The mice in the blank control group and model group were administered intragastrically via a solvent from the 5th day after modeling, and the rest groups of mice were respectively administered corresponding medicaments and doses for intragastric administration for 10 consecutive days; 1 h later after the final administration, the mice were weighed; blood was taken at inner canthus to detect blood coagulation time; whole blood was taken, and cerebrum was taken on an ice and preserved at -20° C. for the subsequent experiment.
Behavioral test: tail suspension activity was performed; the position 1 cm away from the tail of the mice was glued by an adhesive tape on the 9th day of the test, and the adhesive tape was penetrated by a steel needle, and hung in a dark box such that the mice were hung upside down; then the mice struggling times (total number of overturning from hanging) within 2 min were observed.
The mice were weighed 1 h later after the final administration; blood of inner canthus was taken via a capillary to detect the blood coagulation time.
Blood was taken to detect the content of 5-HT in serum via high-performance liquid chromatography. Cerebrum was taken on an ice and precooled and cleaned slightly with 0.5% sodium carboxymethylcellulose, and then sucked dry with a filter paper, and placed into a cryogenic tube, and preserved at -20° C. for further use, then the content of 5-HT in brain tissues was detected by high performance liquid chromatography.
5-HT test method: a sample was precipitated with 10% perchloric acid solution according to 1:1, and then centrifuged to take supernatant for test. Chromatographic conditions: the chromatographic column is a SHIMADZU VP-ODS C18 column (250*4.6 mm, 5 um), the mobile phase is a methanol-0.01 mol/L potassium acetate buffer solution (10:90, V/V, PH is adjusted to 4.00 with 0.2 mol/L citric acid) for gradient elution; the column temperature is 25° C., flow rate is 1.00 ml/min and test wavelength is 275 nm.

The target in assay [2] is T1, recombinant human protein MAGL (Homo sapiens, UniProt Q99685).
T1 construct: purchased Cayman
T1 sequence (Q99685 1-303): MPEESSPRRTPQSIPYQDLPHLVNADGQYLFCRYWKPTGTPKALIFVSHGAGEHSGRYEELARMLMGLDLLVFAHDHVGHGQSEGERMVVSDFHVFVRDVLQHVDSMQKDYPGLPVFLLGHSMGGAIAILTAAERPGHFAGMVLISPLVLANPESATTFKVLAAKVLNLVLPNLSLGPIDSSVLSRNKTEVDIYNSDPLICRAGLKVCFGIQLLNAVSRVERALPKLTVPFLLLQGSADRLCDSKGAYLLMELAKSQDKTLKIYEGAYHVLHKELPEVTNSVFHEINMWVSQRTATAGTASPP
Nature of the assay: MAGL enzyme analysis (Cayman MAGL inhibitor screening kit). It counts as biochemical. Conditions: 4-nitrophenylacetic acid substrate, absorbance 410 nm, read-out: MAGLXIC50. The method, then:
150 µL 1Xassay buffer, 10 µL recombinant human protein MAGL and 10 µL different concentrations of MAGL inhibitors (six points within 1 nM to 1000 nM) were added to per well of a 96-well plate. JZL195 (a positive control inhibitor) served as a positive control well, after incubation for 5 min at room temperature, per well was added with 10 µL MAGL substrate, and […] were vibrated for 10 s and placed for 10 min at room temperature, then an absorbance was detected at 410 nm. […] Graphad Prism 5.0 was taken to calculate IC50 curves fitting each inhibitor.

Assay [3] has as its system mice tail suspension test. Briefly: Mice tail suspension test. The class given is in vivo, ICR mice. To be noted: final 4 min of 6 min, 5 mg/kg intragastric once per day 10 d. The method, then:
(§1) Male ICR mice having a body weight of 18-22 g. The animals were active on a schedule of normal illumination for 12 h and in the dark for 12 h. Environmental temperature and relative humidity were relatively kept for 22±1° C. and 55±5%.
(§2) There were 7 groups of laboratory mice, 10 pieces each group, set as a control group (normal saline), a positive control group (fluoxetine hydrochloride capsule, 5 mg/kg), 5 MAGLZ-II series of administration treatment groups: MAGLZ-II-06, MAGLZ-II-07, MAGLZ-II-11, MAGLZ-II-17 and MAGLZ-II-18, respectively, with an administration concentration of 5 mg/kg.
(§3) All medicaments were used once per day via intragastric administration with a dose of 20 mL/kg (body weight), lasting for 10 d. 1 h later after the final administration, the detection of animal behaviors was started.
The tail suspension test (TST) was performed by the method established by Porsolt, et al. (Porsolt R D, Le Pichon M, Jalfre M. Depression: a new animal model sensitive to antidepressant treatments[J]. Nature, 1977, 266(5604):730-732). Mice were respectively suspended on the tail portions with tail suspension clamps at a distance of 10 mm away from the tail portion of the box (250 mm×250 mm×300 mm) and a distance of 5 cm where the head of each mouse was away from the bottom portion. Noise was tested in a dark room having minimum background, and each mouse was suspended for 6 min, and an immobility time was recorded at intervals in the final 4 min. Judgment standard: the mice stopped struggling and kept still completely.
(§4) All data are shown by x̅±SD, and the comparison among groups is analyzed by one-way variance.

The test system of assay [4] is mice forced swimming test. Briefly: Mice forced swimming test. The class given is in vivo, ICR mice. Conditions: forced swimming, 6 min; 5 mg/kg intragastric once per day 10 d, 1 h after final administration. The method, then: as §1, §2, §3
Mice forced swimming test was performed according to the method established by Porsolt (Porsolt R D. Behavioural despair in mice: A primary screening test for antidepressants[J]. Arch. Int. Pharmacolodyn. 1977, 229). […] Each mouse was judged as still when stopped struggling, kept suspension in water and only made necessary movement to keep the head above the water.
as §4

Take `O=C(Nc1ccc(Cl)cc1)C1CCN(C(=O)c2ccc(O)cc2)CC1` [MAGLZ-II-10]: the Blood coagulation time in assay [1] (high dose 30 mg/kg ig 10 d) is 148.00±30.23 S; in assay [1] (low dose 7.5 mg/kg ig 10 d) it was 113.25±23.31 S; in assay [1] (middle dose 15 mg/kg ig 10 d), 125.25±19.31 S. Also, the “brain tissue 5-HT” value came out at 0.90 ± 0.21 nmol/g in assay [1] (high dose 30 mg/kg ig 10 d), 0.85 ± 0.20 nmol/g in assay [1] (low dose 7.5 mg/kg ig 10 d) and 1.05 ± 0.14 nmol/g in assay [1] (middle dose 15 mg/kg ig 10 d). Also, the “Times of tail suspension (struggling times within 2 min)” value (“Times of tail suspension” for short) in assay [1] (high dose 30 mg/kg ig) was 11.63±1.85; in assay [1] (low dose 7.5 mg/kg ig), 9.25±2.66; in assay [1] (middle dose 15 mg/kg ig) it was 10.63±1.19.

For the compound `O=C(Nc1cccc(Cl)c1)C1CCN(C(=O)c2cc(O)ccc2F)CC1` [MAGLZ-II-11 (a)], the pIC50 in assay [2] was 5.67. For the same compound, the “blood coagulation time, in words” value in assay [1] was “significantly extend”. Also, the “level of 5-HT in the brain tissue, in words” value (from here on “level of 5-HT”) in assay [1] was “significantly increase”. For the same compound, the “times of the tail suspension activity, in words” value (“times … in words” below) in assay [1] is given as “significantly increase”. Also, the Blood coagulation time is reported as 300.63±45.26 S in assay [1] (high dose 30 mg/kg ig 10 d), 136.75±33.22 S in assay [1] (low dose 7.5 mg/kg ig 10 d) and 256.88±42.93 S in assay [1] (middle dose 15 mg/kg ig 10 d). Moreover, the entries for the “brain tissue 5-HT” value in assay [1] (high dose 30 mg/kg ig 10 d), in assay [1] (low dose 7.5 mg/kg ig 10 d) and in assay [1] (middle dose 15 mg/kg ig 10 d) were 2.97 ± 0.28 nmol/g, 1.35 ± 0.38 nmol/g and 1.86 ± 0.29 nmol/g, respectively. For the same compound, the “Times of tail suspension” value in assay [1] (high dose 30 mg/kg ig) is on record as 20.75±4.98; in assay [1] (low dose 7.5 mg/kg ig), 16.13±3.68; in assay [1] (middle dose 15 mg/kg ig) it was 19.88 ± 4.09.

Consider `O=C(Nc1cccc(Cl)c1)C1CCN(C(=O)c2cccc(O)c2)CC1` [MAGLZ-II-11], for which the Accumulated immobility time in assay [3] amounted to 72.81±23.49 S; in assay [4] it was 73.57±27.28 S. For the same compound, the pIC50 in assay [2] was 7.02. Moreover, in assay [1], the “blood coagulation time, in words” value is listed as “significantly extend”. In addition, in assay [1], the “level of 5-HT” value is on record as “significantly increase”. In assay [1], the “times … in words” value is “significantly increase”. In addition, the figures for the Blood coagulation time in assay [1] (high dose 30 mg/kg ig 10 d), in assay [1] (low dose 7.5 mg/kg ig 10 d) and in assay [1] (middle dose 15 mg/kg ig 10 d) were 336.88±33.09 S, 222.5±35.52 S and 326.88±45.9 S, respectively. For the same compound, the “brain tissue 5-HT” value is 3.63 ± 5.34 nmol/g in assay [1] (high dose 30 mg/kg ig 10 d), 1.54 ± 0.27 nmol/g in assay [1] (low dose 7.5 mg/kg ig 10 d) and 2.10 ± 0.22 nmol/g in assay [1] (middle dose 15 mg/kg ig 10 d). In addition, the “Times of tail suspension” value was 23.00±3.59 in assay [1] (high dose 30 mg/kg ig), 14.13±1.89 in assay [1] (low dose 7.5 mg/kg ig) and 16.13±1.73 in assay [1] (middle dose 15 mg/kg ig).

On to `O=C(Nc1cccc(Cl)c1)C1CCN(C(=O)c2cc3cc(F)ccc3[nH]2)CC1` [MAGLZ-II-18 (a)], for which, in assay [2], the pIC50 is 5.67. In assay [1], the “blood coagulation time, in words” value is “significantly extend”. In addition, in assay [1], the “level of 5-HT” value is listed as “significantly increase”. Besides, in assay [1], the “times … in words” value is listed as “significantly increase”. Further, the Blood coagulation time in assay [1] (high dose 30 mg/kg ig 10 d) was determined as 252.25±30.99 S; in assay [1] (low dose 7.5 mg/kg ig 10 d) it was 137.25±67.22 S; in assay [1] (middle dose 15 mg/kg ig 10 d), 191.50±63.66 S. The figures for the “brain tissue 5-HT” value in assay [1] (high dose 30 mg/kg ig 10 d), in assay [1] (low dose 7.5 mg/kg ig 10 d) and in assay [1] (middle dose 15 mg/kg ig 10 d) were 2.76 ± 0.34 nmol/g, 1.21 ± 0.17 nmol/g and 1.65 ± 0.18 nmol/g, respectively. For the same compound, the results for the “Times of tail suspension” value in assay [1] (high dose 30 mg/kg ig), in assay [1] (low dose 7.5 mg/kg ig) and in assay [1] (middle dose 15 mg/kg ig) were 18.50±2.00, 11.38±2.67 and 13.38±2.67, respectively.

Consider `Cn1c(C(=O)N2CCC(C(=O)Nc3cccc(Cl)c3)CC2)cc2ccccc21` [MAGLZ-II-18 (c)], for which, in assay [2], the pIC50 was 8.59. Moreover, the “blood coagulation time, in words” value in assay [1] is “significantly extend”. In assay [1], the “level of 5-HT” value was “significantly increase”. The “times … in words” value in assay [1] is on record as “significantly increase”. Also, the Blood coagulation time stood at 237.13±28.75 S in assay [1] (high dose 30 mg/kg ig 10 d), 148.00±30.23 S in assay [1] (low dose 7.5 mg/kg ig 10 d) and 198.63±21.36 S in assay [1] (middle dose 15 mg/kg ig 10 d). Besides, the “brain tissue 5-HT” value in assay [1] (high dose 30 mg/kg ig 10 d) worked out at 1.79 ± 0.32 nmol/g; in assay [1] (low dose 7.5 mg/kg ig 10 d), 1.14 ± 0.22 nmol/g; in assay [1] (middle dose 15 mg/kg ig 10 d), 1.37 ± 0.34 nmol/g. In addition, the “Times of tail suspension” value in assay [1] (high dose 30 mg/kg ig) was 15.88±3.8; in assay [1] (low dose 7.5 mg/kg ig), 10.13±2.3; in assay [1] (middle dose 15 mg/kg ig), 12.75±2.6.

On to `O=C(Nc1cccc(Cl)c1)C1CCN(C(=O)c2cc3ccccc3[nH]2)CC1` [MAGLZ-II-18], for which the Accumulated immobility time worked out at 79.68±25.72 S in assay [3] and 81.71±38.12 S in assay [4]. Also, in assay [2], the pIC50 was 6.17. The “blood coagulation time, in words” value in assay [1] is “significantly extend”. For the same compound, the “level of 5-HT” value in assay [1] was “significantly increase”. The “times … in words” value in assay [1] was “significantly increase”. For the same compound, the Blood coagulation time in assay [1] (high dose 30 mg/kg ig 10 d) was found to be 241.5 ± 41.63 S; in assay [1] (low dose 7.5 mg/kg ig 10 d), 186.5±51.71 S; in assay [1] (middle dose 15 mg/kg ig 10 d), 212.63±46.02 S. The “brain tissue 5-HT” value in assay [1] (high dose 30 mg/kg ig 10 d) amounted to 2.08 ± 0.59 nmol/g; in assay [1] (low dose 7.5 mg/kg ig 10 d) it was 1.13 ± 0.45 nmol/g; in assay [1] (middle dose 15 mg/kg ig 10 d) it was 1.54 ± 0.54 nmol/g. The “Times of tail suspension” value is recorded as 16.51±4.38 in assay [1] (high dose 30 mg/kg ig), 11.88±4.02 in assay [1] (low dose 7.5 mg/kg ig) and 13.75±4.56 in assay [1] (middle dose 15 mg/kg ig).

The values above are taken from patent US20230090255A1, “MAGL INHIBITOR, PREPARATION METHOD THEREFOR AND USE THEREOF” (LUNAN PHARMACEUTICAL GROUP CORPORATION, priority 2019, published 2023).
